How the values were obtained:
human neutrophils = assay: NETosis of PMA-activated primary human neutrophils (ATAC-see / ATAC-seq); type: cell-based
Method: Human neutrophils were isolated from healthy donor's blood following as described under a Stanford University IRB-approved protocol^23. In brief, 7 ml of heparinized blood was layered on 7 ml Histopaque 1119 (11191-100ML, Sigma Aldrich) in a 15 ml Falcon tube, and the mixture was spun 20 min at 800× g at room temperature. The interphase (lymphocytes and monocytes) was discarded and the granulocyte-rich layer of Histopaque 1119 (diffuse, red phase above RBC pellet) was collected in a new tube. 5 ml of cells were washed with 10 ml of medium (HBSS+), and spun 10 min at 200× g at room temperature. The cells were resuspended in 3 ml DPBS with 0.5% human serum albumin (101-15-50, Lee BioSolutions), and the cell suspension was layered on 10 ml of a discontinuous Percoll gradient (85% to 65% Percoll) and spun 20 min at 800×g at room temperature. The interphase between 70% and 75% Percoll layers were collected in a new 15 ml tube. The tube was added with DPBS with 0.5% human serum albumin up to 15 ml and spun for 10 min at 200× g at room temperature. The cell pellet was resuspended in RPMI-HEPES (10 mM) at 1.5×10^6 cells per ml for neutrophil activation.
Human neutrophils were stimulated by Phorbol myristate acetate (PMA) as described^23. Briefly, the purified neutrophils were suspended in 3 ml RPMI 1640 with final concentration of 1.5×10^6 per ml in loosen cap 15 ml falcon tube, and incubated in cell culture CO2 incubator (5% CO2, 37° C.) with final concentration of 30 nM PMA for 1 h, 3 h, and 5 h respectively. After 2 h of simulation, protease inhibitor cocktail was added at a 1:200 dilution to both control and simulated tubes. At the respective time points, neutrophils were fixed with 1% formaldehyde for 10 min at room temperature, and fixed neutrophil cells spun down on the glass slide with cytospin 1000 rpm 5 min at room temperature for ATAC-see or immuno-staining.
The PAD4 inhibition was performed as previously described^25.
80% confluent Human HT1080 cells (30-50,000 cells) grown in 8 well chamber slides were fixed with 1% formaldehyde (Sigma, USA) for 10 min and quenched with 0.125 M glycine for 5 min at room temperature. After fixation, slides were put in PBS at 4° C. […] The 50 μl transposase reaction solution was added onto the slide, and the cells on slide were incubated at 37° C. for 30 min. For the imaging and sequencing, slides were mounted using Vectorshield and images were taken with a Zeiss LSM 700. After imaging, the coverslip was removed and cells were lysed with 50 μl of 50 mM Tris-Cl, 1 mM EDTA, 1% SDS, 0.2 M NaCl 5 min on slide at room temperature. The cell lysis was carefully transferred to 1.5 ml eppendorf tube. The glass slide was washed with 50 μl of the same buffer another 3 times and washing solutions were transferred to the same tube carefully. […]

Tn5 = Tn5 (Escherichia coli, UniProt Q46731, E54K/L372P); conditions: 50 mM EDTA, HT1080 cells
Method: HT1080 cells and HeLa cells were grown on secureSlip cell culture system (0515073, GRACE BIO-LABS) until 80-90% confluent and fixed with 1% formaldehyde (Sigma-Aldrich) for 10 min at room temperature. GM12878 cells were fixed with 1% formaldehyde (Sigma) 10 min at room temperature and centrifuged on the glass slide with Cytospin, 1000 rpm for 5 min, 30-50,000 cells per slide.
ATAC-see: After fixation, the cells (either growing on slide or centrifuged on glass slide with cytospin) were permeabilized with lysis buffer (10 mM Tris-Cl, pH 7.4, 10 mM NaCl, 3 mM MgCl2, 0.01% Igepal CA-630) for 10 min at room temperature. After the permeabilization, the slides were rinsed in PBS twice, and put in humid chamber box at 37° C. The transposase mixture solution (25 μl 2× TD buffer, final concentration of 100 nM Tn5-ATTO-59ON, adding dH2O up to 50 μl) was added on the slide and incubated for 30 min at 37° C. […] After washing, slides were mounted using Vectashield with DAPI (H-1200, Vector labs) for imaging with Leica SP8 or Zeiss 700 or for additional co-staining with Lamin B1 or mitochondria (see the materials and methods above).

## NC(=O)[C@H](CCCN=C(N)CCl)NC(=O)c1ccccc1 [Cl-amidine]
Human neutrophils; 200 μM Cl-amidine 30 min before PMA stimulation
  NETosis: inhibited
Human neutrophils; PAD4i-treated, after 5 hrs of neutrophil activation
  release of free DNA from mononucleosomes: fail to release free DNA from mononucleosomes

## O=C(O)CN(CCN(CC(=O)O)CC(=O)O)CC(=O)O [EDTA]
Tn5
  ATAC-see signal, % of control: 2.69%±0.04

## CCCCCCCCCCCCCC(=O)O[C@@H]1[C@@H](C)[C@@]2(O)[C@@H](C=C(CO)C[C@]3(O)C(=O)C(C)=C[C@@H]23)[C@@H]2C(C)(C)[C@]12OC(C)=O [PMA, Phorbol myristate acetate]
Human neutrophils; 30 nM PMA, after 3 hrs of stimulation
  neutrophils that have released their chromatin into the extracellular space: 49.7%
Human neutrophils; 30 nM PMA, after 5 hrs of stimulation
  neutrophils that have released NETs: 59.7%
